{
  "source": "patent US8097585B2",
  "about": "“Methods of treating inflammation by administration of heme oxygenase-1 and products of heme degradation” (priority 2002, dated 2012)",
  "key": {"TNF-alpha": {"system": "TNF-alpha", "test": "Endotoxic shock (LPS) model, serum TNF-alpha", "type": "in vivo, Sprague-Dawley rats", "details": "biliverdin i.p. […] 17 h and 1 h prior to and 8 h after LPS 3 mg/kg i.v.", "protocol": "Treatment Protocol. Endotoxin (lipopolysaccharide/LPS; Sigma; E. coli serotype 0128:B7; 3 mg/kg, i.v.) was administered to male Sprague-Dawley, resulting in an acute non-lethal inflammation. In rats, a sublethal dose of LPS results in a moderate lung inflammation characterized by neutrophil accumulation and protein accumulation in the airspace, both markers of lung inflammation. The pro-inflammatory cytokine TNF-alpha increases very rapidly in the serum, peaking by 60-90 minutes. This is followed by increases in IL-10, a prototypical anti-inflammatory cytokine that peaks 8-12 hr later.\nAdministration of Biliverdin. Biliverdin (Frontier Scientific: prepared in PBS following solubilization in NaOH) was administered i.p. at […] 17 hours prior to, one hour prior to, and eight hours after LPS administration.\nBronchoalveolar Lavage. A bronchoalveolar lavage (BAL) was performed 24 hours after LPS administration. Serum cytokines were measured using commercially available ELISA kits (R&D Systems Inc.) per the manufacturer's instructions. Total protein was determined via a standard Bradford assay based on a standard curve. […] Total cell count was determined as well as differential analysis of cell type and morphology via Diff-Quik® Fixative (American Scientific Products) staining of a sample of the lavagate."}, "[1]": {"system": "jejunal circular muscle strips", "test": "Jejunal circular muscle contractility after small intestinal transplantation (organ bath)", "type": "in vivo, LEW rats", "protocol": "Small Intestinal Transplantation. Orthotopic small intestinal transplantation (SITx) was performed in syngeneic Lewis rats. SITx with caval drainage was performed using a previously described procedure (Murase et al., in Handbook of Animal Models in Transplantation Research, Cramer et al., Eds. CRC Press, Boca Raton, Fla., pp. 203-213 (1994)). […] The graft was perfused via the aortic segment with 5 ml chilled Ringer's lactate solution, and the intestinal lumen was irrigated with 20 ml of cold saline solution containing 0.5% neomycin-sulfate (Sigma, St. Louis, Mo.). End-to-side anastomoses between the graft aorta and the recipient infrarenal aorta, and between the graft portal vein and recipient vena cava, were performed with 10-0 Novafil™ suture. The cold ischemic time was 1 hour. The entire recipient intestine was removed and the enteric continuity was restored by proximal and distal end-to-end intestinal anastomoses. Recipient animals were given 20 mg/day prophylactic cefamandole nafate for 3 postoperative days. Transplanted recipients were given water 3 hours after surgery, and were fed 24 hours after surgery.\nMotility Studies. The effect of administration of biliverdin on treatment on intestinal dysmotility in transplanted grafts was assessed both in vitro and in vivo. […] In vitro circular muscle mechanical activity was measured as previously described (Eskandari et al., Am. J. Physiol. 273(3 Pt 1):G727-34, 1997). Rats were anesthetized and killed by exsanguination 24 hours post-operatively. A segment of mid-jejunum was pinned in a Sylgaard™ lined dissecting dish containing pre-oxygenated Krebs-Ringer-bicarbonate buffer (KRB; in mM: 137.4 Na^+, 5.9 K^+, 2.5 Ca^2+, 1.2 Mg^2+, 134 Cl^−, 15.5 HCO3^−, 1.2 H2PO4^−, and 11.5 glucose) that was equilibrated with 97% O2/3% CO2. […] Contractile activity was calculated by integrating the area under the trace, normalized by converting the weight and length of the strip to square millimeters of tissue (1.03 mg/mm^2), and reported as g/s/mm^2. […]"}, "intestinal graft": {"system": "intestinal graft", "test": "Graft permeability, everted gut sac method with FD4", "type": "in vivo, LEW rats", "details": "BV treated grafts", "protocol": "Graft permeability. The preparation of everted gut sacs was performed in ice-cold modified Krebs-Henseleit bicarbonate buffer [KHBB (pH 7.4)] consisting of 10 mM HEPES, 137.0 mM NaCl, 5.36 mM KCl, 4.17 mM NaHCO3, 0.34 mM Na2HPO4, 0.44 mM KH2PO4, 0.41 mM MgSO47H2O, 0.49 mM MgCl26H20, 1.26 mM CaCl2, and 19.45 mM glucose. One end of the gut segment was ligated with 4-0 silk. The resulting gut sac was everted using a thin plastic rod. A groove was cut into the tip of a 5 ml plastic syringe and 1.5 mL of KHBB was drawn into the syringe. The open end of the everted gut sac was secured to the groove using 4-0 silk, and the intestine was gently distended by injecting the KHBB from the syringe. […] Following a 30 min incubation, the length of the sac was measured, and 1.0 mL of the fluid within the gut sac was collected. […] Subsequently, 300 ul of the supernatant was diluted with 3.0 mL of phosphate buffered saline, and the fluorescence of the solution was measured using a Perkin-Elmer LS-50 fluorescence spectrophotometer (Palo Alto, Calif.) at an excitation wave length of 492 nm (slit width=10.0 nm) and an emission wavelength of 515 nm (slit width=[…]).\nGraft permeability. […] Graft permeability was determined by the everted gut sac method using 4 Kd Fluorescein isothiocyanate dextran."}},
  "note": "“Also recorded” adds a separate entry of the source. Structures can show the parent of a compound that is named as a salt.",
  "data": [
    {"smiles": "C=CC1=C(C)/C(=C/C2=NC(=C\\c3[nH]c(/C=C4\\NC(=O)C(C)=C4C=C)c(C)c3CCC(=O)O)/C(CCC(=O)O)=C2C)NC1=O", "note": "[biliverdin, biliverdin dihydrochloride]", "values": [
      {"measurement": "levels of LPS-induced TNF-alpha", "setting": "TNF-alpha", "result": "reduced"},
      {"measurement": "spontaneous muscle contractile activity", "setting": "[1]; control (unoperated) animals treated with BV", "result": "no change"},
      {"measurement": "spontaneous contractile activity", "setting": "[1]; grafts in recipients treated with BV, compared to untreated transplants, 24 hours", "result": "significantly greater"},
      {"measurement": "bethanechol-stimulated muscle contractility", "setting": "[1]; transplanted animals treated with BV versus untreated graft muscles, 24 hours, listed as BV, dihydrochloride", "result": "significantly improved; also recorded: Significant improvement"},
      {"measurement": "inhibition of the increase of intestinal permeability", "setting": "intestinal graft", "result": "~60", "unit": "%"}
    ]}
  ]
}
